From the kinase profiling compilation of Christmann-Franck et al. (2016)

Columns and labels:
Assay in all cases: radiometric filter-binding kinase assay, Kinase HotSpot
Conditions in all cases: compound 0.5 µM; ATP 10 µM
MAP3K2 (human) = MAP3K2 (human) (UniProt Q9Y2U5)
PRKD2 (human) = PRKD2 (human) (UniProt Q9BZL6)
MAP3K7 TAB1 (human) = MAP3K7 TAB1 (human) (UniProt O43318+Q15750)
PDGFRB (human) = PDGFRB (human) (UniProt P09619)
TGFBR2 (human) = TGFBR2 (human) (UniProt P37173)
AKT3 (human) = AKT3 (human) (UniProt Q9Y243)
PRKCD (human) = PRKCD (human) (UniProt Q05655)
RPS6KA2 KD1 KD2 (human) = RPS6KA2 KD1 KD2 (human) (UniProt Q15349)
CDK3 CCNE1 (human) = CDK3 CCNE1 (human) (UniProt Q00526+P24864)
AXL (human) = AXL (human) (UniProt P30530)
PASK (human) = PASK (human) (UniProt Q96RG2)
BTK (human) = BTK (human) (UniProt Q06187)
CAMK1D (human) = CAMK1D (human) (UniProt Q8IU85)
MAP4K4 (human) = MAP4K4 (human) (UniProt O95819)
MAP3K9 (human) = MAP3K9 (human) (UniProt P80192)
RPS6KB1 (human) = RPS6KB1 (human) (UniProt P23443)
VRK1 (human) = VRK1 (human) (UniProt Q99986)
AURKC (human) = AURKC (human) (UniProt Q9UQB9)
DYRK3 (human) = DYRK3 (human) (UniProt O43781)
CAMK2A (human) = CAMK2A (human) (UniProt Q9UQM7)
CAMK2D (human) = CAMK2D (human) (UniProt Q13557)
PRKG2 (human) = PRKG2 (human) (UniProt Q13237)
DAPK1 (human) = DAPK1 (human) (UniProt P53355)
RIPK2 (human) = RIPK2 (human) (UniProt O43353)
NEK3 (human) = NEK3 (human) (UniProt P51956)
ACVR1B (human) = ACVR1B (human) (UniProt P36896)
MAP3K5 (human) = MAP3K5 (human) (UniProt Q99683)
FES (human) = FES (human) (UniProt P07332)
EPHA4 (human) = EPHA4 (human) (UniProt P54764)
LIMK1 (human) = LIMK1 (human) (UniProt P53667)
PTK2 (human) = PTK2 (human) (UniProt Q05397)
PHKG1 (human) = PHKG1 (human) (UniProt Q16816)
STK24 (human) = STK24 (human) (UniProt Q9Y6E0)
TAOK1 (human) = TAOK1 (human) (UniProt Q7L7X3)
STK16 (human) = STK16 (human) (UniProt O75716)
DAPK2 (human) = DAPK2 (human) (UniProt Q9UIK4)
CDK7 CCNH MNAT1 (human) = CDK7 CCNH MNAT1 (human) (UniProt P50613+P51948+P51946)
SYK (human) = SYK (human) (UniProt P43405)
SRPK2 (human) = SRPK2 (human) (UniProt P78362)
INSRR (human) = INSRR (human) (UniProt P14616)
CSNK1D (human) = CSNK1D (human) (UniProt P48730)

RPS6KA2 KD1 KD2 (human), sequence (Q15349 whole entry, looked up): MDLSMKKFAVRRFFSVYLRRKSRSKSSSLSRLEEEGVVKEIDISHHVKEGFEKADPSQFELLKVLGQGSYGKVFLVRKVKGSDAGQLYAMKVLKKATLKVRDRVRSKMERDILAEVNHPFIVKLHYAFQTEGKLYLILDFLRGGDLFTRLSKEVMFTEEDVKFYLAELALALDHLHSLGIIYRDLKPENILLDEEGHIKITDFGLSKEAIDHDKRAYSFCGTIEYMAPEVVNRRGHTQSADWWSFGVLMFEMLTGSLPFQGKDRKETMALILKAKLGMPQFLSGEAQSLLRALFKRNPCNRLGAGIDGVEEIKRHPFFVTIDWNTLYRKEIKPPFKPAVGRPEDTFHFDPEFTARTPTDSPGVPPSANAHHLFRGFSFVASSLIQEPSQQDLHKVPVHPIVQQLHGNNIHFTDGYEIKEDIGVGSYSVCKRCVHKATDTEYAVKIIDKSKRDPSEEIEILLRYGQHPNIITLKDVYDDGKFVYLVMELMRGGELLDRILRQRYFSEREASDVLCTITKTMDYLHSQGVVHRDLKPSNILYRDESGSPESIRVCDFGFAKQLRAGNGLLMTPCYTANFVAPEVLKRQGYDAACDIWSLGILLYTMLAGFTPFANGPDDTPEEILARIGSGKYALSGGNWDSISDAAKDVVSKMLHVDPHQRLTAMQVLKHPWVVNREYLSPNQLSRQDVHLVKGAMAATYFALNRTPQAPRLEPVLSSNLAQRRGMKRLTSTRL
CAMK1D (human), sequence (Q8IU85 whole entry, looked up): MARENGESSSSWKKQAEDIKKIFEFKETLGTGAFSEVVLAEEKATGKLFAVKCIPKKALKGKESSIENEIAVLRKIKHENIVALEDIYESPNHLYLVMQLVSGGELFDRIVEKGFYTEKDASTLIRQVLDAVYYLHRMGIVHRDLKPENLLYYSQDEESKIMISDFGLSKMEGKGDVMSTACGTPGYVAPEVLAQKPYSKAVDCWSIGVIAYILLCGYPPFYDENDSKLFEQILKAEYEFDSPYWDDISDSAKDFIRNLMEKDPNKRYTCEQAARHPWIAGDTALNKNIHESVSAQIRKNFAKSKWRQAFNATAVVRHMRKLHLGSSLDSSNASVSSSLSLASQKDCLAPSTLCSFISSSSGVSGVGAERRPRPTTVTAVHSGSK
PHKG1 (human), sequence (Q16816 whole entry, looked up): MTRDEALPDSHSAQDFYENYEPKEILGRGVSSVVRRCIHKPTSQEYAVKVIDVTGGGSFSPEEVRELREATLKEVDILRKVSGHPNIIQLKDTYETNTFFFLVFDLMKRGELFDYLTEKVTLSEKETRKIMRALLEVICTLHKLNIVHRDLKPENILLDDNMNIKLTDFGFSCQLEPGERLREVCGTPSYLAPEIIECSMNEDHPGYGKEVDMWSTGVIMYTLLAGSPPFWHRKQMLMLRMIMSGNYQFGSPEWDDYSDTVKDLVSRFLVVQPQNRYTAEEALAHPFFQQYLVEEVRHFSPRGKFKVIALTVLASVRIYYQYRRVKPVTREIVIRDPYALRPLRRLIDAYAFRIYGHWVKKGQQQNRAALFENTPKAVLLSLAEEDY
PASK (human), sequence (Q96RG2 whole entry, looked up): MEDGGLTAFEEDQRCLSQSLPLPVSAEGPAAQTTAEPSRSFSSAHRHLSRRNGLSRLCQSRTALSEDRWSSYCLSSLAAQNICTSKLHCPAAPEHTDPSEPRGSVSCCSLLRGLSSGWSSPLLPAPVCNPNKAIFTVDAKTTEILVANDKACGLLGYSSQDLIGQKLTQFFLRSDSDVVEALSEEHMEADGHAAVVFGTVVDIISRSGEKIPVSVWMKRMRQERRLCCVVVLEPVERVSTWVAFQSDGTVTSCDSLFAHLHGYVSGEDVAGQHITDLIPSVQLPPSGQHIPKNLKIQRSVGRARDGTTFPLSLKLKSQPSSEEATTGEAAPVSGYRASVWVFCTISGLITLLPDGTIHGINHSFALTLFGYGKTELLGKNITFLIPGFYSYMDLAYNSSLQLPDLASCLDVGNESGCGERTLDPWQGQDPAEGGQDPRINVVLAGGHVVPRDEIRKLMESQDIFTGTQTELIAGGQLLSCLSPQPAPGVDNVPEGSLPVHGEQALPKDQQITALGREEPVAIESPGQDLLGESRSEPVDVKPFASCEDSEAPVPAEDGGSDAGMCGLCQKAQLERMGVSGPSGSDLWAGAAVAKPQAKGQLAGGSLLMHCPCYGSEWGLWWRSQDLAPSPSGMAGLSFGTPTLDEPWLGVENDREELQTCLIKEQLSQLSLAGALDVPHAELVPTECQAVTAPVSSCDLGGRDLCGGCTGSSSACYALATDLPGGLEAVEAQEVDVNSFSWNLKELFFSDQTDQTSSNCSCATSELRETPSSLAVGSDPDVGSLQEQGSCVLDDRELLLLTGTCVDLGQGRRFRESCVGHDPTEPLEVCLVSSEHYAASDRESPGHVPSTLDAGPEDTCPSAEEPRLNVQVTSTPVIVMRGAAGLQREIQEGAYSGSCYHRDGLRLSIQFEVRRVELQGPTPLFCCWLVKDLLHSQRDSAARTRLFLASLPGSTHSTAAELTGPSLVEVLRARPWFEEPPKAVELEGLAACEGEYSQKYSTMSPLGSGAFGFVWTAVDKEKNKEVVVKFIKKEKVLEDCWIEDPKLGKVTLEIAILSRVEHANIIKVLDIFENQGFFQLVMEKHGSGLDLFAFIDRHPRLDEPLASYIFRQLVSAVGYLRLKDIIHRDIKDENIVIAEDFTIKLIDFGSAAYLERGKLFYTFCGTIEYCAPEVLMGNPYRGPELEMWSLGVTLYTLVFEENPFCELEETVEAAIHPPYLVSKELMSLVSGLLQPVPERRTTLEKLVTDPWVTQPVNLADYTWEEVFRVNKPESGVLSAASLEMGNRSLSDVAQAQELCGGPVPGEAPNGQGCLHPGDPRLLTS
TGFBR2 (human), sequence (P37173 whole entry, looked up): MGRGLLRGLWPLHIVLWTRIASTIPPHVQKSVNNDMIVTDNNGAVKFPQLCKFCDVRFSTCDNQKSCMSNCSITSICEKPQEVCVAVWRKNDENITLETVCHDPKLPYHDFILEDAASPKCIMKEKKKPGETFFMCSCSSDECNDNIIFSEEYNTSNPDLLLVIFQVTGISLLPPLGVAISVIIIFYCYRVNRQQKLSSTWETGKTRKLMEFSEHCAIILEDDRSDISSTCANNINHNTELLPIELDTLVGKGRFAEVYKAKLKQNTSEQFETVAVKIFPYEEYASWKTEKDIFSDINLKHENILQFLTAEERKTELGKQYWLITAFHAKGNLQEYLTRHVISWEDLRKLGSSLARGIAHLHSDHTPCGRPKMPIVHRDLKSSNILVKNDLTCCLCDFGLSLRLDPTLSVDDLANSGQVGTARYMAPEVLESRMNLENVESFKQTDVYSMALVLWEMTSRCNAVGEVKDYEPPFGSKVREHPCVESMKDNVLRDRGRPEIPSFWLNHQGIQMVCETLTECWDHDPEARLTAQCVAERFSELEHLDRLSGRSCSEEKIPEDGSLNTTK
VRK1 (human), sequence (Q99986 whole entry, looked up): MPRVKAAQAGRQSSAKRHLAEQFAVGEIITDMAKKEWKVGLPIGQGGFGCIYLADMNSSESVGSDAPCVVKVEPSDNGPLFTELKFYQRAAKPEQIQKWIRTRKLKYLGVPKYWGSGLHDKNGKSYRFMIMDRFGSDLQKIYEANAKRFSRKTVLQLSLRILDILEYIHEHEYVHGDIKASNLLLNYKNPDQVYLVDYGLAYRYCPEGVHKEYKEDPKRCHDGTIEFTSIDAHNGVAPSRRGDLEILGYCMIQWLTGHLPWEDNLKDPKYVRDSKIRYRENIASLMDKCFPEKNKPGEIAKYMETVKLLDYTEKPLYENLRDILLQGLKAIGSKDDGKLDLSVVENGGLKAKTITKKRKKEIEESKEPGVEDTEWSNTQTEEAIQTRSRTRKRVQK
MAP3K2 (human), sequence (Q9Y2U5 whole entry, looked up): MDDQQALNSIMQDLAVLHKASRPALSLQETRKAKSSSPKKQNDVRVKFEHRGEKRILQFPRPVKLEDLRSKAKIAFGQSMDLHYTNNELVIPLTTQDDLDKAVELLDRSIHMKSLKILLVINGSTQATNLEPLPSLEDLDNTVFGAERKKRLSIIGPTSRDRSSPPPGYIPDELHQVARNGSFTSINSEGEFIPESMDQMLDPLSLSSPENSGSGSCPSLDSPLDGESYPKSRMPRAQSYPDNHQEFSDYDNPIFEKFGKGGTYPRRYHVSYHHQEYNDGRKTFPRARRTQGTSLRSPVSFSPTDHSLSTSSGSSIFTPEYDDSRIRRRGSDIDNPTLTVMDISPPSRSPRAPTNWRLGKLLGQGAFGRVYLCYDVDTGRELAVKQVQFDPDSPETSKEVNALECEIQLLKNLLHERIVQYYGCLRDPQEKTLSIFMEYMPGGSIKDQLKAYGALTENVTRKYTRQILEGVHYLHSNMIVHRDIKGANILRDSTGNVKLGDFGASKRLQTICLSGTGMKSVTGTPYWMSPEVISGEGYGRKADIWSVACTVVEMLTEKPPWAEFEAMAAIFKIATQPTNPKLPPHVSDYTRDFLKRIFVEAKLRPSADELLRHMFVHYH
STK24 (human), sequence (Q9Y6E0 whole entry, looked up): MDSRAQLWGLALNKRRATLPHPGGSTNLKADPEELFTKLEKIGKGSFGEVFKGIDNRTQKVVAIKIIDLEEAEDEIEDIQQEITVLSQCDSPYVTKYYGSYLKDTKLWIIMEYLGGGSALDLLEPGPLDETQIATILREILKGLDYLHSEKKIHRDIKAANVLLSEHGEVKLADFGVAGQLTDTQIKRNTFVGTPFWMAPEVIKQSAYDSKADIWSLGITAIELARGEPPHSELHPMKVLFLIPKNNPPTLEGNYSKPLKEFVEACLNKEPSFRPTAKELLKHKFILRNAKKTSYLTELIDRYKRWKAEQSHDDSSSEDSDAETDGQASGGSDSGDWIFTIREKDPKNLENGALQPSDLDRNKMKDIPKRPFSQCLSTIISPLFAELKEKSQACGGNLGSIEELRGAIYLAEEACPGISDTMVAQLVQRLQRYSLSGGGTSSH

`COc1ccc(CNC(=O)Nc2ncc([N+](=O)[O-])s2)cc1` showed a residual activity (MAP3K2 (human)) of 94.1%, a residual activity (PRKD2 (human)) of 97.3% and a residual activity (MAP3K7 TAB1 (human)) of 99.3%. For the same compound, the residual activity (PDGFRB (human)) was 125%, the residual activity (TGFBR2 (human)) was 117% and the residual activity (AKT3 (human)) was 95.9%. For the same compound, the residual activity (PRKCD (human)) was 100%, the residual activity (RPS6KA2 KD1 KD2 (human)) was 100% and the residual activity (CDK3 CCNE1 (human)) was 94.8%. For the same compound, the residual activity (AXL (human)) was 92%, the residual activity (PASK (human)) was 106% and the residual activity (BTK (human)) was 102%. The residual activity (CAMK1D (human)) was 112%, the residual activity (MAP4K4 (human)) was 98.8% and the residual activity (MAP3K9 (human)) was 101%. For the same compound, the residual activity (RPS6KB1 (human)) was 85.4%, the residual activity (VRK1 (human)) was 95% and the residual activity (AURKC (human)) was 98.4%. The residual activity (DYRK3 (human)) was 105%, the residual activity (CAMK2A (human)) was 98.8% and the residual activity (CAMK2D (human)) was 98.3%. The residual activity (PRKG2 (human)) was 100%, the residual activity (DAPK1 (human)) was 105% and the residual activity (RIPK2 (human)) was 82.8%. The residual activity (NEK3 (human)) was 78.6%, the residual activity (ACVR1B (human)) was 102% and the residual activity (MAP3K5 (human)) was 87.8%. The residual activity (FES (human)) was 97.7%, the residual activity (EPHA4 (human)) was 101% and the residual activity (LIMK1 (human)) was 96%. It also gave a residual activity (PTK2 (human)) of 101%, a residual activity (PHKG1 (human)) of 101% and a residual activity (STK24 (human)) of 93.6%. It also gave a residual activity (TAOK1 (human)) of 101%, a residual activity (STK16 (human)) of 99.9% and a residual activity (DAPK2 (human)) of 93.3%. It also gave a residual activity (CDK7 CCNH MNAT1 (human)) of 94.8%, a residual activity (SYK (human)) of 98.6% and a residual activity (SRPK2 (human)) of 99.6%. It also gave a residual activity (INSRR (human)) of 99.2%.
`O=C1Cc2c([nH]c3ccc(Br)cc23)-c2ccccc2N1` was tested, and the residual activity (MAP3K2 (human)) was 94.2%, the residual activity (PRKD2 (human)) was 100% and the residual activity (MAP3K7 TAB1 (human)) was 84.2%. It also gave a residual activity (PDGFRB (human)) of 93.2%, a residual activity (TGFBR2 (human)) of 74.2% and a residual activity (AKT3 (human)) of 105%. It also gave a residual activity (PRKCD (human)) of 92.7%, a residual activity (RPS6KA2 KD1 KD2 (human)) of 94.9% and a residual activity (CDK3 CCNE1 (human)) of 81.7%. The residual activity (AXL (human)) was 101%, the residual activity (PASK (human)) was 98% and the residual activity (BTK (human)) was 98%. For the same compound, the residual activity (CAMK1D (human)) was 112%, the residual activity (MAP4K4 (human)) was 6.61% and the residual activity (MAP3K9 (human)) was 64.6%. It also gave a residual activity (RPS6KB1 (human)) of 103%, a residual activity (VRK1 (human)) of 87.3% and a residual activity (AURKC (human)) of 90.9%. It also gave a residual activity (DYRK3 (human)) of 113%, a residual activity (CAMK2A (human)) of 105% and a residual activity (CAMK2D (human)) of 91.1%. For the same compound, the residual activity (PRKG2 (human)) was 101%, the residual activity (DAPK1 (human)) was 101% and the residual activity (RIPK2 (human)) was 75.9%. For the same compound, the residual activity (CSNK1D (human)) was 104%, the residual activity (NEK3 (human)) was 96.2% and the residual activity (ACVR1B (human)) was 99.8%. It also gave a residual activity (MAP3K5 (human)) of 99.2%, a residual activity (FES (human)) of 87.8% and a residual activity (EPHA4 (human)) of 96.1%. The residual activity (LIMK1 (human)) was 99.2%, the residual activity (PTK2 (human)) was 94.3% and the residual activity (PHKG1 (human)) was 49.7%. The residual activity (STK24 (human)) was 84.8%, the residual activity (TAOK1 (human)) was 99.4% and the residual activity (STK16 (human)) was 98.9%. The residual activity (DAPK2 (human)) was 100%, the residual activity (CDK7 CCNH MNAT1 (human)) was 95.1% and the residual activity (SYK (human)) was 81.5%. The residual activity (SRPK2 (human)) was 98.9% and the residual activity (INSRR (human)) was 95.8%.
For `CC(C)[C@H](CO)Nc1nc(Nc2cc(N)cc(Cl)c2)c2ncn(C(C)C)c2n1`, the residual activity (MAP3K2 (human)) was 83.1%, the residual activity (PRKD2 (human)) was 103% and the residual activity (MAP3K7 TAB1 (human)) was 51.3%. It also gave a residual activity (PDGFRB (human)) of 98.1%, a residual activity (TGFBR2 (human)) of 93.5% and a residual activity (PRKCD (human)) of 87.6%. It also gave a residual activity (RPS6KA2 KD1 KD2 (human)) of 48.7%, a residual activity (CDK3 CCNE1 (human)) of 31.9% and a residual activity (AXL (human)) of 93.1%. For the same compound, the residual activity (PASK (human)) was 106%, the residual activity (BTK (human)) was 33% and the residual activity (CAMK1D (human)) was 103%. For the same compound, the residual activity (MAP4K4 (human)) was 86.1%, the residual activity (MAP3K9 (human)) was 7.81% and the residual activity (RPS6KB1 (human)) was 95.5%. The residual activity (VRK1 (human)) was 85.8%, the residual activity (AURKC (human)) was 91.9% and the residual activity (DYRK3 (human)) was 103%. The residual activity (CAMK2A (human)) was 83.9%, the residual activity (CAMK2D (human)) was 87.3% and the residual activity (PRKG2 (human)) was 88.8%. For the same compound, the residual activity (DAPK1 (human)) was 95.3%, the residual activity (RIPK2 (human)) was 87.7% and the residual activity (CSNK1D (human)) was 65.7%. It also gave a residual activity (NEK3 (human)) of 100%, a residual activity (ACVR1B (human)) of 107% and a residual activity (MAP3K5 (human)) of 95.6%. It also gave a residual activity (FES (human)) of 69.2%, a residual activity (EPHA4 (human)) of 61.4% and a residual activity (LIMK1 (human)) of 107%. It also gave a residual activity (PTK2 (human)) of 59.5%, a residual activity (PHKG1 (human)) of 81.1% and a residual activity (STK24 (human)) of 75.9%. For the same compound, the residual activity (TAOK1 (human)) was 79.9%, the residual activity (STK16 (human)) was 74% and the residual activity (DAPK2 (human)) was 101%. It also gave a residual activity (CDK7 CCNH MNAT1 (human)) of 54.7%, a residual activity (SYK (human)) of 81.1% and a residual activity (SRPK2 (human)) of 31%. The residual activity (INSRR (human)) was 70.8%.
